Measurements reported in PMC10872856 (The Prostate, 2023).

Biological target: T1, N-myristoyltransferase 1 (NMT1) (Homo sapiens, UniProt P30419)
T1 sequence (P30419 1-496): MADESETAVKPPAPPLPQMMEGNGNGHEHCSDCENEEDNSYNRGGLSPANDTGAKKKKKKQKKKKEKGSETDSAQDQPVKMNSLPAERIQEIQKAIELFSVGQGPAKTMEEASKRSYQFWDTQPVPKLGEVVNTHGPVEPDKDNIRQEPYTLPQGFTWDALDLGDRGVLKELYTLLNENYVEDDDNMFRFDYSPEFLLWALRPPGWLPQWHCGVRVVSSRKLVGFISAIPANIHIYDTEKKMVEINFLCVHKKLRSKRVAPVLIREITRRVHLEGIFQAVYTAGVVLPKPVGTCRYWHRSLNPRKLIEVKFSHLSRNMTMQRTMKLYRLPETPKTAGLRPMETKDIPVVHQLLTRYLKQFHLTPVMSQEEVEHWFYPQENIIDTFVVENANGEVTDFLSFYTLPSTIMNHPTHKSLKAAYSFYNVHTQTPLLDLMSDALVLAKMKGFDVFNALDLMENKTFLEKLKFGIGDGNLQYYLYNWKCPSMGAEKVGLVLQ
Test: fluorogenic CoA-release enzyme assay
Type: biochemical

IC50: 2.3 µM
Compound: CCCCCCCCCCCCCCN[C@H](CO)[C@H](O)c1ccc([N+](=O)[O-])cc1 [LCL204, (1R,2R)-LCL204]
